Results: ChEMBL document CHEMBL4346728, “Discovery and development of DNA polymerase IIIC inhibitors to treat Gram-positive infections” (Bioorg Med Chem, 2019)
≈ marks a conversion by molar mass, not a printed value. Calls of active or inactive are those of the source. The rule behind the calls is not given here.

Tests used:
[1] = system: Enterococcus faecium; experiment: Antibacterial activity against Enterococcus faecium RLA1 incubated for overnight; assay type: functional
[2] = system: Streptococcus pneumoniae; experiment: Antibacterial activity against Streptococcus pneumoniae MCL5350 incubated for overnight; assay type: functional
[3] = Inhibition of recombinant Staphylococcus aureus DNA polymerase 3C expressed in Escherichia coli BL21 cells assessed as assessed as reduction in [3H]dTTP incorporation in to activated calf thymus DNA using calf thymus DNA as substrate incubated for 30 mins by scintillation counting analysis
[4] = system: Staphylococcus aureus; experiment: Antibacterial activity against Staphylococcus aureus MB2865 incubated for overnight; assay type: functional
[5] = system: Bacillus subtilis; experiment: Antibacterial activity against Bacillus subtilis F2 incubated for overnight; assay type: functional
[6] = Inhibition of bacterial DNA polymerase 3C using dATP/dCTP/dTTP/dGTP as substrate in presence of activated calf thymus DNA incubated for 15 mins and measured for 1 min by luciferase based enzymatic assay; set-up: species or system Bacteria
[7] = system: Staphylococcus aureus; experiment: Antibacterial activity against Staphylococcus aureus 133 infected in CFW1 mouse, iv administered at 30 mins post infection and measured over 5 days; assay type: functional; details: Staphylococcus aureus, 133, iv
[8] = system: Enterococcus faecalis; experiment: Antibacterial activity against Enterococcus faecalis ICB 27159 incubated for 18 hrs under microaerophilic condition by broth microdilution method; assay type: functional; details: ICB 27159, 18 h
[9] = system: Staphylococcus aureus; experiment: Antibacterial activity against Staphylococcus aureus 133 incubated for 18 hrs by broth microdilution method; assay type: functional; details: Staphylococcus aureus, 133, 18 h
[10] = system: Enterococcus faecalis; experiment: Antibacterial activity against Enterococcus faecalis ICB 27159 infected in CFW1 mouse assessed as mouse survival at 5 mg/kg, iv administered at 30 mins post infection and measured over 5 days; assay type: functional, organism-based
[11] = system: Streptococcus pneumoniae; experiment: Antibacterial activity against Streptococcus pneumoniae 1707/4 incubated for 18 hrs under microaerophilic condition by broth microdilution method; assay type: functional; details: 1707/4, 18 h
[12] = system: Enterococcus faecalis; experiment: Antibacterial activity against Enterococcus faecalis ATCC 29212 incubated for 16 to 24 hrs by microplate reader analysis; assay type: functional
[13] = system: Enterococcus faecium; experiment: Antibacterial activity against Enterococcus faecium incubated for 16 to 24 hrs by microplate reader analysis; assay type: functional
[14] = system: Bacillus subtilis; experiment: Antibacterial activity against Bacillus subtilis ATCC BD54 incubated for 16 to 24 hrs by microplate reader analysis; assay type: functional
[15] = system: Staphylococcus aureus; experiment: Antibacterial activity against methicillin-resistant Staphylococcus aureus B42876 incubated for 16 to 24 hrs by microplate reader analysis; assay type: functional
[16] = system: Enterococcus faecium; experiment: Antibacterial activity against vancomycin-resistant Enterococcus faecium incubated for 16 to 24 hrs by microplate reader analysis; assay type: functional
[17] = system: Escherichia coli; experiment: Antibacterial activity against Escherichia coli J53 incubated for 16 to 24 hrs by microplate reader analysis; assay type: functional
[18] = Inhibition of recombinant Bacillus subtilis DNA polymerase 3C expressed in Escherichia coli using activated calf thymus DNA as substrate after 10 mins in presence of dATP/dCTP/[3H]dTTP/dATP by liquid scintillation counting analysis
[19] = system: Staphylococcus aureus; experiment: Antibacterial activity against Staphylococcus aureus ATCC 25923 incubated for 16 to 24 hrs by microplate reader analysis; assay type: functional
[20] = system: Clostridioides difficile; experiment: Antibacterial activity against Clostridium difficile by CLSI method; assay type: functional
[21] = system: Streptococcus pyogenes; experiment: Antibacterial activity against macrolide-resistant Streptococcus pyogenes by CLSI guideline based method; assay type: functional
[22] = system: Staphylococcus aureus; experiment: Antibacterial activity against methicillin-resistant Staphylococcus aureus by CLSI guideline based method; assay type: functional
[23] = system: Enterococcus faecium; experiment: Antibacterial activity against vancomycin-resistant Enterococcus faecium by CLSI guideline based method; assay type: functional
[24] = Inhibition of Staphylococcus aureus R27 DNA polymerase 3C using activated calf thymus DNA as substrate in presence of dATP/dGTP/dCTP/[3H]dTTP measured for 20 mins
[25] = system: Bacillus subtilis; experiment: Antibacterial activity against Bacillus subtilis ATCC BD54 incubated for 16 to 18 hrs by microplate reader analysis; assay type: functional
[26] = Inhibition of Bacillus subtilis DNA polymerase 3
[27] = system: Clostridioides difficile; experiment: Antibacterial activity against metronidazole-resistant Clostridium difficile by CLSI method; assay type: functional
[28] = system: Clostridioides difficile; experiment: Antibacterial activity against vancomycin-resistant Clostridium difficile by CLSI method; assay type: functional
[29] = system: Clostridioides difficile; experiment: In vivo inhibition of Clostridium difficile ATCC 43255 infected in golden syrian hamster assessed as reduction in recurrence rate at 50 mg/kg, po bid for 7 days relative to control; assay type: functional; details: 168 h

CCc1cc(Nc2nc(O)c3c[nH]nc3n2)ccc1C
MIC [1]: ≥ 9 µg/mL
MIC [2]: ≥ 9 µg/mL
IC50 [3]: 71000 nM
MIC [4]: ≥ 9 µg/mL
MIC [5]: ≥ 9 µg/mL

CCc1cc(Nc2cc(=O)n(CC3CCN(C(=O)c4ccno4)CC3)c(=O)[nH]2)ccc1C
IC50 [6]: 100 nM
ED50 [7]: 10 mg/kg
MIC [8]: 8 µg/mL (≈ 18.3 µM)
MIC [9]: 16 µg/mL (≈ 36.6 µM)
Activity [10]: Active
MIC [11]: 8 µg/mL (≈ 18.3 µM)

CCc1cc(Nc2cc(=O)n(CCCCO)c(=O)[nH]2)ccc1C
MIC [12]: 5 µg/mL (≈ 15.8 µM)
MIC [13]: 2.5 µg/mL (≈ 7.88 µM)
MIC [14]: < 1.25 µg/mL
MIC [15]: 5 µg/mL (≈ 15.8 µM)
MIC [16]: 2.5 µg/mL (≈ 7.88 µM)
MIC [17]: > 20 µg/mL
IC50 [18]: 63 nM
MIC [19]: 5 µg/mL (≈ 15.8 µM)

Cc1ncc([N+](=O)[O-])n1CCO [METRONIDAZOLE]
MIC50 [20]: 1 µg/mL (≈ 5.84 µM)
MIC90 [20]: 4 µg/mL (≈ 23.4 µM)

CS(=O)(=O)CCOCc1csc(NC(=O)NCc2ccc(Cl)c(Cl)c2)n1
MIC90 [21]: 1 to 8 µg/mL (≈ 2.28 to 18.2 µM)
MIC90 [22]: 1 to 8 µg/mL (≈ 2.28 to 18.2 µM)
MIC90 [23]: 1 to 8 µg/mL (≈ 2.28 to 18.2 µM)

CN[C@H](CC(C)C)C(=O)N[C@H]1C(=O)N[C@@H](CC(N)=O)C(=O)N[C@H]2C(=O)N[C@H]3C(=O)N[C@H](C(=O)N[C@H](C(=O)O)c4cc(O)cc(O)c4-c4cc3ccc4O)[C@H](O)c3ccc(c(Cl)c3)Oc3cc2cc(c3O[C@@H]2O[C@H](CO)[C@@H](O)[C@H](O)[C@H]2O[C@H]2C[C@](C)(N)[C@H](O)[C@H](C)O2)Oc2ccc(cc2Cl)[C@H]1O [VANCOMYCIN]
MIC50 [20]: 1 µg/mL (≈ 0.69 µM)
MIC90 [20]: 4 µg/mL (≈ 2.76 µM)

CCc1cc(Nc2cc(=O)n(CCCCN3CCCCC3)c(=O)[nH]2)ccc1C
MIC [12]: 20 µg/mL (≈ 52 µM)
MIC [13]: 20 µg/mL (≈ 52 µM)
MIC [14]: 10 µg/mL (≈ 26 µM)
MIC [15]: 40 µg/mL (≈ 104 µM)
MIC [16]: 10 µg/mL (≈ 26 µM)
MIC [17]: > 20 µg/mL
IC50 [18]: 28 nM
MIC [19]: 20 µg/mL (≈ 52 µM)

CCc1cc(Nc2cc(Oc3ccc(Br)cc3)nc(N)n2)ccc1C
IC50 [24]: 10000 nM

COc1ccc(-c2cc(C(=O)N/N=C/c3cc(OC)c(OC)c(OC)c3)[nH]n2)cc1
IC50 [18]: 200 nM
MIC [25]: 0.625 µg/mL (≈ 1.52 µM)

CCc1cc(Nc2cc(O)nc(O)n2)ccc1C
IC50 [26]: 1000 nM

COCCS(=O)(=O)Cc1csc(NC(=O)NCc2ccc(Cl)c(Cl)c2)n1
MIC [21]: 0.5 to 4 µg/mL (≈ 1.14 to 9.12 µM)
MIC [22]: 0.5 to 4 µg/mL (≈ 1.14 to 9.12 µM)
MIC [23]: 0.5 to 4 µg/mL (≈ 1.14 to 9.12 µM)

Cc1noc(C)c1C(=O)N(C)Cc1csc(NC(=O)NCc2cccc(F)c2)n1
MIC90 [21]: 1 to 4 µg/mL (≈ 2.4 to 9.58 µM)
MIC90 [22]: 1 to 4 µg/mL (≈ 2.4 to 9.58 µM)
MIC90 [23]: 1 to 4 µg/mL (≈ 2.4 to 9.58 µM)

O=c1[nH]c(NCc2ccc(Cl)c(Cl)c2)nc2ncn(CCN3CCOCC3)c12 [IBEZAPOLSTAT]
MIC50 [27]: 2 µg/mL (≈ 4.72 µM)
MIC90 [27]: 4 µg/mL (≈ 9.45 µM)
MIC50 [28]: 2 µg/mL (≈ 4.72 µM)
MIC90 [28]: 4 µg/mL (≈ 9.45 µM)
MIC50 [20]: 2 µg/mL (≈ 4.72 µM)
MIC90 [20]: 4 µg/mL (≈ 9.45 µM)
inhibition in vivo at 50 mg/kg [29]: 40%
